Source: paper PMC4870705, “Topical Delivery of Protein and Peptide Using Novel Cell Penetrating Peptide IMT-P8” (Scientific Reports, 2016)
Entries after “also recorded” stand apart in the source; their conditions may differ.

Assays:
HeLa cells [1] = assay: Confocal laser scanning microscopy, intracellular localization in live cells; details: FITC-labeled peptide 2.5 μM, 30 min, 37 °C
Description: Cells were washed with PBS thrice and live cells were imaged. Scale bars are 10 μm.
Cells were not fixed to avoid artifactual localization of the internalized peptide. At the end of the incubation period, culture medium was removed, and coverslips were washed thoroughly with PBS for 3–5 minutes (thrice) and mounted on glass slides with the antifade reagent.
Thereafter, cells were washed with PBS thrice and immediately examined using the confocal microscope.

HeLa cells [2] = assay: Cell viability assay (MTT); type: cell-based, human; details: 24 h, serum containing medium; for Cell viability (MTT): HeLa, unlabeled peptide 0, 5, 10 and 20 μM, 37 °C
Description: (§1) Figure 3 Cell viability assay. (A) HeLa, (B) PC3 and (C) MDA-MB-231 cells were incubated with increasing concentrations (5, 10, and 20 μM) of peptides in serum containing medium at 37 °C for 24 h. Cell viability was measured by MTT assay. Viability of only cells (without peptide) was taken as 100% and viabilities of cells treated with increasing concentration of peptides were plotted as percentage of control.
(§2) Cell viability was determined by MTT assay. Briefly, cells (HeLa, PC3 and MDA-MB-231) were seeded at a density of 5 × 10^3 cells/well in 96-well microtiter plates in medium supplemented with 10% FBS 24 h before the start of the experiment. Cells were incubated with different concentrations (5, 10, and 20 μM, respectively) of unlabeled peptides for 24 h. […] At the end of the incubation period, cell growth was assayed by the addition of 20 μl of MTT (5 mg/mL; Sigma-Aldrich) to each well, and plate was incubated at 37 °C for 4 h. Later, the medium was removed carefully, 200 μl DMSO was added and mixed, and the absorbance was read at 570 nm with a microplate reader (Bio-Rad). The survival of cells relative to the control (cells incubated with growth medium containing no peptide) was calculated by taking the ratio of the absorbance at 570 nm values. All the experiments were performed in triplicates.

PC3 cells = assay: Cell viability assay (MTT); type: cell-based, human; details: unlabeled peptide 5, 10 and 20 μM, 24 h, serum containing medium
Description: as §1, §2

MDA-MB-231 cells = assay: Cell viability assay (MTT); type: cell-based, human; details: unlabeled peptide 5, 10 and 20 μM, 24 h, serum containing medium
Description: as §1, §2

| Sequence | Internalization / fluorescence in cells by CLSM (HeLa cells [1]) | Cell viability (MTT) (HeLa cells [2]) | Cell viability (MTT) at 20 μM (HeLa cells [2]; unlabeled peptide 20 μM, HeLa (text says all cell lines examined)) | Cell viability (MTT) (PC3 cells) | Cell viability (MTT) (MDA-MB-231 cells) |
| --- | --- | --- | --- | --- | --- |
| KLAKLAKKLAKLAK [small cationic amphipathic mitochondrial membrane-disrupting pro-apoptotic peptide, 14 aa, used as cargo, reference compound] | no fluorescence | not effective at any concentration tested |  |  |  |
| KLAKLAKKLAKLAKRRWRRWNRFNRRRCR [IMT-P8-KLA, fusion peptide of KLA and IMT-P8, 29 aa] |  | dose-dependent decrease in cell viability; also recorded: caused significant cell death | significant decrease in cell viability | dose-dependent decrease in cell viability | dose-dependent decrease in cell viability |
| RRWRRWNRFNRRRCR [IMT-P8, novel human protein-derived arginine-rich cell-penetrating peptide (Institute of Microbial Technology-Peptide 8), 15 aa] |  | not effective at any concentration tested |  |  |  |
